Results reported in US11192849B2, “Compounds, compositions, and methods for modulating ferroptosis and treating excitotoxic disorders” (THE TRUSTEES OF COLUMBIA UNIVERSITY IN THE CITY OF NEW YORK, priority 2013, dated 2021).

Key:
Calu-1 cells = experiment: Erastin-induced ferroptosis in Calu-1 cells, NOX pathway inhibitors; type: cell-based, human
Protocol: (§1) Cell viability was typically assessed in 384-well format by Alamar Blue (Invitrogen) fluorescence (ex/em 530/590) measured on a Victor3 platereader (Perkin Elmer, Waltham, Mass.). In some experiments, Trypan Blue dye exclusion counting was performed using an automated cell counter (ViCell, Beckman-Coulter Inc., Brea, Calif.). Cell viability in test conditions is reported as a percentage relative to the negative control treatment.

BJeLR cells = experiment: Erastin-induced death and ROS in BJeLR cells; type: cell-based, human; conditions: erastin 10 μM, 6-AN 200 μM
Protocol: The day before the experiment, 200,000 cells/well were seeded in 6-well dishes (Corning Inc., Corning, N.Y.). The day of the experiment, cells were treated with test compounds for the indicated times, then harvested by trypsinization, resuspended in 500 μL Hanks Balanced Salt Solution (HBSS, Gibco, Invitrogen Corp., Carlsbad, Calif.) containing either H2DCFDA (25 μM), C11-BODIPY(581/591) (2 μM) or MitoSOX (5 μM) (all from Molecular Probes, Invitrogen) and incubated for 10 minutes at 37° C. in a tissue culture incubator. Cells were then resuspended in 500 μL of fresh HBSS, strained through a […] cell strainer (BD Falcon, BD Biosciences, San Jose, Calif.), and analyzed using a flow cytometer (FACSCalibur or Accuri C6, BD Biosciences), which was equipped with 488-nm laser for excitation. Data was collected from the FL1 (H2DCFDA, C11-BODIPY) or FL2 channel (MitoSOX). A minimum of 10,000 cells were analyzed per condition.
as §1, with “treatment. […]” for “treatment.”

HT-1080 cells = experiment: Inhibition of erastin (10 μM)-induced death in HT-1080 cells (Alamar Blue); type: cell-based, human; conditions: erastin-treated HT-1080 cells
Outline: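 HT-1080 cells (1,000/well) were treated next day with 10 μM erastin plus a compound dilution series for 24 h. Alamar Blue (10% final) was then added for 6 h and fluorescence read at ex/em 530/590.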

SLC7A11 = SLC7A11 mRNA levels (RT-qPCR) in HT-1080 cells; type: cell-based, human; conditions: 6 hours
Protocol: RNA was extracted using the Qiashredder and Qiagen RNeasy Mini kits (Qiagen) according to the manufacturer's protocol. 2 μg total RNA for each sample was used as input for each reverse transcription reaction, performed using the TaqMan RT kit (Applied Biosystems, Life Technologies Corp., Carlsbad, Calif.). Primer pairs were designed for target transcripts using Primer Express 2.0 (Applied Biosystems). Quantitative PCR reactions were performed using the Power SYBR Green PCR Master Mix (Applied Biosystems). Triplicate samples per condition were analyzed on an Applied Biosystems 7300 qPCR instrument using absolute quantification settings. Differences in mRNA levels compared to HPRT1 or ACTB internal reference control were computed between control and experimental conditions using the ΔΔCt method.

BJeLR and HT-1080 cells = experiment: Measurement of ATP levels; type: cell-based, human; conditions: normalized to viability
Protocol: ATP levels were evaluated using the ApoSENSOR ATP Assay Kit (Biovision Inc., Milpitas, Calif.) according to the manufacturer's instructions. 2000 HT-1080 or BJeLR cells were seeded in 96-well white bottom plates (Falcon). Cells were treated 12 hours later with compound as above for the TEM. Prior to luminescence measurement, medium was removed and cells were lysed and incubated with ATP Monitoring Enzyme. Luminescence was measured using a Victor3 platereader equipped with an infrared emission filter every 30 seconds for 10 minutes. Typically the first reading was used for data analysis. Parallel cell culture treatments were performed in 96-well clear bottom plates and cell viability was determined using Alamar Blue. These values were used to normalize ATP levels to cell viability.

[1] = test system: mouse kidney proximal tubules; experiment: Hydroxyquinoline + iron induced cell death in isolated mouse kidney proximal tubules (LDH release); type: cell-based; conditions: 10 μM hydroxyquinoline and ferrous ammonium sulfate, 60 min
Protocol: Tubule preparation: 8-12 week old C57/BL6 female mice were euthanized with isoflurane. […] The cortices were then dissected and minced on an ice cold tile, then resuspended in additional Solution A for 8-10 min. of digestion at 37° C. followed by enrichment of proximal tubules using centrifugation on self-forming Percoll gradients as previously described for rabbit tubules.
Experimental procedures for isolated tubules: Tubules were suspended at 1.5-2.0 mg tubule protein/ml in a 95% air/5% CO2-gassed medium containing (in mM) 110 NaCl, 2.6 KCl, 25 NaHCO3, 2.4 KH2PO4, 1.25 CaCl2, 1.2 MgCl2, 1.2 MgSO4, 5 glucose, 4 sodium lactate, 0.3 alanine, 5 sodium butyrate, 2 glycine, and 1.0 mg/ml bovine gelatin (75 bloom) (Solution B). After precincubation for 15 min. at 37° C., then were then resuspended in fresh Solution B containing 2 mM heptanoic acid instead of sodium butyrate along with experimental compounds.
In addition, the efficacy of Fer-1, SRS11-92, and selected analogs was tested in a model of iron-induced cell death in freshly isolated mouse kidney proximal tubules that simulates major elements of rhabdomyolysis-induced acute kidney injury (FIG. 15C). Cell death in this model is known to involve oxidative lipid damage (Sogabe, et al., 1996, Park, et al., 2011); it was therefore believed that Fer-1 might be protective. 10 μM each of hydroxyquinoline and ferrous ammonium sulfate (HQ+Fe) were used to induce cell death, which was quantified by monitoring LDH release after 60 min. […] By implication, cell death in these models may involve, at least in part, the induction of lipid peroxidation and perhaps ferroptosis.

[2] = test system: freshly isolated renal tubules; experiment: LDH release from hypoxic freshly isolated renal tubules; type: cell-based, mouse; conditions: Nec-1 50 μM, with or without glycine
Protocol: Six to 12 mice were used for each isolated tubule preparation, depending on the amount of material needed for particular experiments. For preparation of isolated tubules, mice were anesthetized with ketamine (100 mg/kg i.p.) and xylazine (10 mg/kg i.p.), and the kidneys were immediately removed. Type I collagenase was from Worthington Biochemical. Percoll was purchased from Amersham Biosciences. All other reagents and chemicals, including delipidated BSA, were of the highest grade available from Sigma-Aldrich. […] The cortices were then dissected and minced on an ice-cold tile and then resuspended in additional solution A for 8-10 min of digestion at 37° C., followed by enrichment of proximal tubules using centrifugation on self-forming Percoll gradients. For Nec-1 studies in renal tubules, renal cortices were dissected in ice-cold dissection solution (DS) [HBSS with 10 mmol/L glucose, 5 mmol/L glycine, 1 mmol/L alanine, 15 mmol/L Hepes (pH 7.4); osmolality, 325 mOsmol/L] and sliced into 1-mm pieces. The fragments were transferred to collagenase solution (DS with 0.1% (wt/vol) type 2 collagenase and 96 μg/mL soybean trypsin inhibitor) and digested for 30 min at 37° C. and 61×g. After digestion, the supernatant was sieved through two nylon sieves: first 250-μm pore size and then 100-μm pore size. […]

[3] = test system: HT-1080, BJeLR and Calu-1 cells; experiment: Modulatory profiling of cell death inhibitors against erastin; type: cell-based, human; conditions: erastin 10 μM, 24 hours; 10-point, 4-fold dilution series
Protocol: The day before the experiment, cells were seeded in black, 384-well clear bottom plates (Corning) at a density of 1,000 cells/well using a Beckman Biomek FX Workstation. All compounds (except 3-methyladenine and chloroquine, which were diluted in water) were diluted in DMSO at 250 times the final highest test concentration, and aliquoted across a 384-well plate (Greiner, Monroe, N.C.). A ten-point, 4-fold dilution series of each inhibitor in DMSO was made using a multichannel pipette. Replicates of this mother plate were stored at −20° C. […] Medium was removed from cells and replaced with 36 μL medium containing DMSO (0.1%) or erastin (10 μM final concentration). Using the Biomek FX, 4 μL were then transferred from each inhibitor daughter plate into the DMSO-containing or erastin-containing assay plates. For 3-methyladenine and chloroquine, inhibitors were prepared fresh in media at 10-fold the final concentration in the presence of DMSO or 10 μM erastin. These solutions were manually pipetted onto cells in 384-well format. Assay plates were incubated at 37° C. for 24 hours. Viability was assessed using Alamar Blue.
The modulatory effect (Me) for drug-drug interactions was computed as follows. First, plate-based background correction was performed using Alamar Blue values from empty (cell-free) wells included on each plate. Next, within each experiment, 100% viability is determined as the average Alamar Blue score for cells treated with modulator=DMSO and lethal=DMSO, and all Alamar Blue values were scaled from 0 to 1 with the DMSO×DMSO condition=1. The individual effects of each modulator and lethal (e.g. in the presence of DMSO) at all tested doses were then ascertained. […] Next, BExp was compared to the actual observed viability. […] By default, Me in DMSO-treated cells is equal to 0. […] Me values for each inhibitor-lethal drug combination were hierarchically clustered and plotted as a heatmap using the heatmaps.2 function of the gplots library in R.

NC(=O)c1ccc(N)nc1 [Compound 6-AN, 6-aminonicotinamde]
suppression of erastin-induced ferroptosis (Calu-1 cells): strongly suppressed
erastin-induced cell death and ROS production (BJeLR cells): prevented cell death as well as ROS production

OCCS [β-ME, β-mercaptoethanol, reference compound]
prevention of erastin-induced death (HT-1080 cells): strongly inhibited cell death
effect on erastin/SAS-induced SLC7A11 upregulation (SLC7A11): suppressed

OO [Compound H2O2, hydrogen peroxide]
intracellular ATP (BJeLR and HT-1080 cells): substantial depletion of intracellular ATP

CN1C(=O)C(Cc2c[nH]c3ccccc23)NC1=S (centres unmarked) [necrostatin-1]
HQ+Fe induced lethality (LDH release) [1]: did not show any protection
LDH release from hypoxic renal tubules [2]: no protection was detected
modulation of erastin-induced death [3]: not consistently modulated
